For one data set, the system named is NRF2. Briefly: Measurement 2 of Nrf2 activating action (reporter assay) in HCE-T/ARE-Luc cells. To be noted: 50% activation concentration, culture for 24 hours. It is filed as cell-based. On the procedure: The NRF2 activating action of the compounds on cells was measured by a reporter gene assay. pGL4.37[luc2P/ARE/Hygro](Promega) was introduced into HCE-T cells using FuGENE HD. Cells that acquired drug resistance as a result of transduction were screened by culture in the presence of 50 μg/mL hygromycin, and a clone strain, HCE-T/ARE-Luc, was established.
HCE-T/ARE-Luc was cultured using DMEM/F12, 10 ng/mL hEGF, 5 μg/mL insulin, and 5% FBS. Phenol red-free DMEM/F12 was used as the assay medium.
HCE-T/ARE-Luc was seeded in a 96-well polystyrene microplate (FALCON) with 10000 cells per well. The cells were incubated in a CO: incubator at 37° C. for 16 hours to allow for cell adhesion. The test substance was dissolved in dimethylsulfoxide to prepare a solution at a concentration 1000 times higher than the test concentration. The test substance diluted 1000-fold in the assay medium was added, followed by culture for 24 hours. When measuring the activity of the reporter, the medium containing the test substance was removed, and then a new medium and a substrate of ONE-GloEX Luciferase Assay System (Promega) were added. The plate was shaken for 1 minute and then allowed to stand at ordinary temperature for 10 minutes, and luminescence was detected using the GloMax Discover System.
The 50% activation concentration of each test substance was calculated by creating a calibration curve between two concentrations across the luminescence intensity of 50%.
For orientation: In a reporter assay the amount or activity of a reporter protein is the signal.

Data set [1] is described as follows: Measurement of metabolic stability in human liver microsomes. It is filed as in vitro ADME. To be noted: residual ratio of test compound after 30 minutes at 37° C. with human liver microsome, LC/MS/MS. As to the method: 1 mmol/L DMSO solutions of the compounds produced in the Examples were prepared. Each of the 1 mmol/L DMSO solutions was diluted with acetonitrile to 10 μmol/L, and then diluted with a 6.5 mmol/L Q-NADPH solution to 200 nmol/L. 50 μL of each solution was added to the reaction group and the non-reaction group. 50 μL of a 0.2 mg protein/mL human liver microsome (Mixed Gender, Pool of 50 livers; XenoTech, LLC) solution was added to the reaction group, followed by incubation at 37° C. for 30 minutes with shaking. After 400 μL of methanol was added to the non-reaction group, 50 μL of a 0.2 mg protein/mL human liver microsome solution was added to adjust the formulation. After incubation in the reaction group, 400 μL of methanol was added to stop the reaction. The samples of the reaction group and non-reaction group were allowed to stand at −20° C. for about 30 minutes, followed by centrifugation at 4° C. at 3000 rpm for about 10 minutes. The supernatant was analyzed using LC/MS/MS, and the residual ratio of the test compound was calculated from the peak area value of the test compound using the following formula. The measurement was carried out using the following devices: HPLC system: LC-20A-Series High Performance Liquid Chromatograph (Shimadzu Corporation) and mass spectrometer: API 4000 (AB Sciex Pte. Ltd.), or using equivalent devices. Residual ratio (%)=(peak area value of test compound in reaction group/peak area value of test compound in non-reaction group)×100 Results
A general note: Liver microsomes are vesicles of endoplasmic reticulum, rich in cytochrome P450 enzymes.

Data set [2] deals with T1, binding between NRF2 and KEAP1 (Homo sapiens, UniProt Q14145).
T1 construct: expressed in transfected cells; host or cells: HCE-T cells; each protein was expressed separately, and the two cell lysates were mixed in the well
T1 sequence (Q14145 whole entry): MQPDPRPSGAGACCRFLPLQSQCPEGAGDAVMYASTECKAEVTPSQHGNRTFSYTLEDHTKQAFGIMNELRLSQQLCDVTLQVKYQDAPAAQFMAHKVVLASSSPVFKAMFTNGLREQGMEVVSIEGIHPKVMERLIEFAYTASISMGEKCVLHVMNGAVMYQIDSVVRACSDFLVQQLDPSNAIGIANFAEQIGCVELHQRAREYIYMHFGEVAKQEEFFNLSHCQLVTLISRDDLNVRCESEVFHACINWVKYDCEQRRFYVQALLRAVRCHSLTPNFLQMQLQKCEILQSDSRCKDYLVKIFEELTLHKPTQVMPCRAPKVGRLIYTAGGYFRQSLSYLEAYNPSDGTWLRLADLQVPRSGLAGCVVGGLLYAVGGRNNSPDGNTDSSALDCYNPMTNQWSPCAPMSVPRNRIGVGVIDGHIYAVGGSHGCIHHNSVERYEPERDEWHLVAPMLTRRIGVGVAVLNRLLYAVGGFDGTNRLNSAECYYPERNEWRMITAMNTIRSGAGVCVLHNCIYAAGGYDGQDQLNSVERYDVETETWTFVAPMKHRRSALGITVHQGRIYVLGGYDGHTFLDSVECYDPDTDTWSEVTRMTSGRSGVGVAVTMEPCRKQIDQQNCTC
Kind of data set: Measurement 1 of Nrf2 activating action (binding assay): BRET assay of inhibition of the binding between NRF2 and KEAP1. To be noted: 50% binding inhibitory concentration, NanoLuc-NRF2 / KEAP1-HaloTag cell lysates. On the procedure: Compounds 1 to 53 produced in the Examples were used as test substances.
The inhibitory activity of each compound on the binding between NRF2 and KEAP1 was measured by bioluminescence resonance energy transfer (BRET) assay. A plasmid having human NRF2 (Original Clone ID: ha01449s1) sequence fused with NanoLuc (19 kDa, Promega) at the N-terminal was transduced into HCE-T cells using FuGENE HD (Promega). 48 hours after transduction, the cell lysate was collected and used as an NRF2-expressing cell lysate. A plasmid having human KEAP1 (Original Clone ID: cs00328) sequence fused with HaloTag (33 kDa, Promega) at the C-terminal was transduced into HCE-T cells using FuGENE HD (Promega). After 24 hours, HaloTag Nano BRET 618 Ligand (Promega) was added to the medium. The cell lysate cultured for 24 hours after the addition was used as a KEAP1-expressing cell lysate.
The NRF2-expressing cell lysate and the KEAP1-expressing cell lysate were adjusted so that the luminescence and fluorescence intensities per well were constant. Tables 1 and 2 show the formulation of each reaction solution.
Each test substance at a concentration 100 times higher than the test concentration was dissolved in dimethylsulfoxide for adjustment. 49 μL of KEAP1 solution was added to a 96-well polystyrene microplate (FALCON) to which 1 μL of each test substance solution was added, followed by incubation for 15 minutes. Then, 50 μL of NRF2 solution was added to the above solution, followed by incubation for 1 hour. To measure the binding between NRF2 and KEAP1, NanoBRET Nano-Glo Substrate (Promega) diluted with Opti-Mem (Thermo Fisher Scientific) was added, followed by shaking for 30 seconds. Then, luminescence and fluorescence were measured using the GloMax Discover System (Promega). A 495-nm short pass filter and a 600-nm long pass filter were respectively used to measure donor and acceptor emission values. A value obtained by dividing the acceptor emission value by the donor emission value was regarded as BRET value. A BRET value when the compound was not added, and a BRET value when the KEAP1 solution was not added were respectively used as binding rates of 100% and 0%, and the binding rate when the compound was added was calculated. Further, using this binding rate, the 50% binding inhibitory activity concentration (IC50) was calculated from the following formula: IC50(M)=10^(LOG(A/B)×(50−C)/(D−C)+LOG(B)) • A: higher concentration out of 2 close concentrations across the inhibition rate of 50% • B: lower concentration out of 2 close concentrations across the inhibition rate of 50% • C: inhibition rate at B • D: inhibition rate at A
(In BRET a luciferase serves as donor, and the signal depends on an acceptor being close.)

Each structure is given as a SMILES string.

In the data set on NRF2, `CC(=O)c1ccc(C(c2ccc(C)c(CN3CC(CCOCc4ccccc4)Oc4ccccc4S3(=O)=O)c2)C(C)C(=O)O)s1` (centres unmarked) [Compound 13, 3-(5-acetylthiophen-2-yl)-3-[3-({4-[2-(benzyloxy)ethyl]-1,1-dioxide-3,4-dihydro-2H-benzo[b][1,4,5]oxathiazepin-2-yl}methyl)-4-methylphenyl]-2-methylpropanoic acid] gave an EC50 of 6.71 nM. In addition, the “Metabolic stability*” value in data set [1] came out at 2%.

`CC[C@@H]1CN(Cc2cc(C(c3ccc(C(C)=O)s3)C(C)C(=O)O)ccc2C)S(=O)(=O)c2ccccc2O1` (stereo partly drawn) [Compound 1, 3-(5-acetylthiophen-2-yl)-3-(3-{[(R)-4-ethyl-1,1-dioxide-3,4-dihydro-2H-benzo[b][1,4,5]oxathiazepin-2-yl]methyl}-4-methylphenyl)-2-methylpropanoic acid]: in the data set with NRF2, the EC50 came to 9.19 nM. Besides, in data set [1], the “Metabolic stability*” value is 37%.

On to `CC[C@@H]1CN(Cc2cc(C(c3ccc(C(C)=O)s3)C(C)C(=O)O)ccc2C)S(=O)(=O)c2cnccc2O1` (stereo partly drawn) [Compound 16, 3-(5-acetylthiophen-2-yl)-3-(3-{[(R)-4-ethyl-1,1-dioxide-3,4-dihydro-2H-pyrido[4,3-b][1,4,5]oxathiazepin-2-yl]methyl}-4-methylphenyl)-2-methylpropanoic acid], for which the EC50 with NRF2 worked out at 3.57 nM. Moreover, the “Metabolic stability*” value in data set [1] came out at 51%.

As to `CC[C@@H]1CN(Cc2cc(C(c3ccc(C(C)=O)s3)C(C)(C)C(=O)O)ccc2C)S(=O)(=O)c2cnccc2O1` (stereo partly drawn) [Compound 48, 3-(5-acetylthiophen-2-yl)-3-(3-{[(R)-4-ethyl-1,1-dioxide-3,4-dihydro-2H-pyrido[4,3-b][1,4,5]oxathiazepin-2-yl]methyl}-4-methylphenyl)-2,2-dimethylpropanoic acid], in the data set with NRF2, the EC50 stood at 3.67 nM. Further, the “Metabolic stability*” value in data set [1] is recorded as 56%.

In the case of `CC[C@@H]1CN(Cc2cc(C(c3cc(C)c(C(C)=O)s3)C(C)C(=O)O)ccc2C)S(=O)(=O)c2ccccc2O1` (stereo partly drawn) [Compound 2, 3-(5-acetyl-4-methylthiophen-2-yl)-3-(3-{[(R)-4-ethyl-1,1-dioxide-3,4-dihydro-2H-benzo[b][1,4,5]oxathiazepin-2-yl]methyl}-4-methylphenyl)-2-methylpropanoic acid], the EC50 in the data set with NRF2 turned out to be 9 nM. The “Metabolic stability*” value in data set [1] amounted to 21%.

In turn, `CC[C@@H]1CN(Cc2cc(C(c3cc(OC)c(C(C)=O)s3)C(C)C(=O)O)ccc2C)S(=O)(=O)c2cnccc2O1` (stereo partly drawn) [Compound 51, 3-(5-acetyl-4-methoxythiophen-2-yl)-3-(3-{[(R)-4-ethyl-1,1-dioxide-3,4-dihydro-2H-pyrido[4,3-b][1,4,5]oxathiazepin-2-yl]methyl}-4-methylphenyl)-2-methylpropanoic acid] displayed an EC50 in the data set with NRF2 of 7.47 nM. Further, in data set [1], the “Metabolic stability*” value turned out to be 50%.

In the data set on NRF2, `CC[C@@H]1CN(Cc2cc(C(c3cc(OC)c(C(C)=O)s3)C(C)(C)C(=O)O)ccc2C)S(=O)(=O)c2ccccc2O1` (stereo partly drawn) [Compound 4, 3-(5-acetyl-4-methoxythiophen-2-yl)-3-(3-{[(R)-4-ethyl-1,1-dioxide-3,4-dihydro-2H-benzo[b][1,4,5]oxathiazepin-2-yl]methyl}-4-methylphenyl)-2,2-dimethylpropanoic acid] registered an EC50 of 7.17 nM. Also, in data set [1], the “Metabolic stability*” value is given as 48%.

Broadly, the IC50 is the concentration needed to halve the response being measured. Low readings indicate higher potency, high ones lower potency. In data set [2], `CC[C@@H]1CN(Cc2cc(C(CC(=O)O)c3ccc(CNC(C)C)o3)ccc2C)S(=O)(=O)c2ccccc2O1` (stereo partly drawn) [Compound 32, 3-(3-{[(R)-4-ethyl-1,1-dioxide-3,4-dihydro-2H-benzo[b][1,4,5]oxathiazepin-2-yl]methyl}-4-methylphenyl)-3-(5-[(isopropylamino)methyl]furan-2-yl)propanoic acid] displayed an IC50 of 205 nM. Further, the “Metabolic stability*” value in data set [1] worked out at 90%.

Take `CC[C@@H]1CN(Cc2cc(C(CC(=O)O)c3ccc(C(=O)NC(C)C)o3)ccc2C)S(=O)(=O)c2ccccc2O1` (stereo partly drawn) [Compound 29, 3-(3-{[(R)-4-ethyl-1,1-dioxide-3,4-dihydro-2H-benzo[b][1,4,5]oxathiazepin-2-yl]methyl}-4-methylphenyl)-3-[5-(isopropylcarbamoyl)furan-2-yl]propanoic acid]: the IC50 in data set [2] was determined as 17 nM. For the same compound, the “Metabolic stability*” value in data set [1] is given as 83%.

Consider `CC[C@@H]1CN(Cc2cc(C(c3cc(C(C)=O)cs3)C(C)C(=O)O)ccc2C)S(=O)(=O)c2ccccc2O1` (stereo partly drawn) [Compound 3, 3-(4-acetylthiophen-2-yl)-3-(3-{[(R)-4-ethyl-1,1-dioxide-3,4-dihydro-2H-benzo[b][1,4,5]oxathiazepin-2-yl]methyl}-4-methylphenyl)-2-methylpropanoic acid], for which the EC50 in the data set with NRF2 stood at 6.81 nM. Moreover, the “Metabolic stability*” value in data set [1] is 51%.

In turn, `CC[C@@H]1CN(Cc2cc(C(c3cc(OC)c(C(C)=O)s3)C(C)(C)C(=O)O)ccc2C)S(=O)(=O)c2cnccc2O1` (stereo partly drawn) [Compound 50, 3-(5-acetyl-4-methoxythiophen-2-yl)-3-(3-{[(R)-4-ethyl-1,1-dioxide-3,4-dihydro-2H-pyrido[4,3-b][1,4,5]oxathiazepin-2-yl]methyl}-4-methylphenyl)-2,2-dimethylpropanoic acid] gave an EC50 in the data set on NRF2 of 2.98 nM. For the same compound, the “Metabolic stability*” value in data set [1] turned out to be 48%.

In the case of `CC[C@@H]1CN(Cc2cc(C(CC(=O)O)c3ccc(C(=O)C4CC4)s3)ccc2C)S(=O)(=O)c2ccccc2O1` (stereo partly drawn) [Compound 20, 3-[5-(cyclopropanecarbonyl)thiophen-2-yl]-3-(3-{[(R)-4-ethyl-1,1-dioxide-3,4-dihydro-2H-benzo[b][1,4,5]oxathiazepin-2-yl]methyl}-4-methylphenyl)propanoic acid], in data set [2], the IC50 amounted to 24 nM. For the same compound, the “Metabolic stability*” value in data set [1] is listed as 7%.

Regarding `CC[C@@H]1CN(Cc2cc(C(CC(=O)O)c3ccc(C(=O)NCCOC)o3)ccc2C)S(=O)(=O)c2ccccc2O1` (stereo partly drawn) [Compound 30, 3-(3-{[(R)-4-ethyl-1,1-dioxide-3,4-dihydro-2H-benzo[b][1,4,5]oxathiazepin-2-yl]methyl}-4-methylphenyl)-3-{5-[(2-methoxyethyl)carbamoyl]furan-2-yl}propanoic acid], the IC50 in data set [2] came to 14 nM. Besides, in data set [1], the “Metabolic stability*” value was 81%.

(Values after US12552757B2, “NRF2-activating compound” (SENJU PHARMACEUTICAL CO., LTD., priority 2019, dated 2026).)
